These molecules were tested against T1, HCMV polymerase (Human cytomegalovirus, UniProt P08546) (assay: HCMV polymerase assay (scintillation proximity assay)). Conditions: Table 10; CMV pol Assay; read-out: IC50.
T1 construct: made in house; host or cells: recombinant baculovirus-infected SF-9 cells
T1 sequence (P08546 whole entry): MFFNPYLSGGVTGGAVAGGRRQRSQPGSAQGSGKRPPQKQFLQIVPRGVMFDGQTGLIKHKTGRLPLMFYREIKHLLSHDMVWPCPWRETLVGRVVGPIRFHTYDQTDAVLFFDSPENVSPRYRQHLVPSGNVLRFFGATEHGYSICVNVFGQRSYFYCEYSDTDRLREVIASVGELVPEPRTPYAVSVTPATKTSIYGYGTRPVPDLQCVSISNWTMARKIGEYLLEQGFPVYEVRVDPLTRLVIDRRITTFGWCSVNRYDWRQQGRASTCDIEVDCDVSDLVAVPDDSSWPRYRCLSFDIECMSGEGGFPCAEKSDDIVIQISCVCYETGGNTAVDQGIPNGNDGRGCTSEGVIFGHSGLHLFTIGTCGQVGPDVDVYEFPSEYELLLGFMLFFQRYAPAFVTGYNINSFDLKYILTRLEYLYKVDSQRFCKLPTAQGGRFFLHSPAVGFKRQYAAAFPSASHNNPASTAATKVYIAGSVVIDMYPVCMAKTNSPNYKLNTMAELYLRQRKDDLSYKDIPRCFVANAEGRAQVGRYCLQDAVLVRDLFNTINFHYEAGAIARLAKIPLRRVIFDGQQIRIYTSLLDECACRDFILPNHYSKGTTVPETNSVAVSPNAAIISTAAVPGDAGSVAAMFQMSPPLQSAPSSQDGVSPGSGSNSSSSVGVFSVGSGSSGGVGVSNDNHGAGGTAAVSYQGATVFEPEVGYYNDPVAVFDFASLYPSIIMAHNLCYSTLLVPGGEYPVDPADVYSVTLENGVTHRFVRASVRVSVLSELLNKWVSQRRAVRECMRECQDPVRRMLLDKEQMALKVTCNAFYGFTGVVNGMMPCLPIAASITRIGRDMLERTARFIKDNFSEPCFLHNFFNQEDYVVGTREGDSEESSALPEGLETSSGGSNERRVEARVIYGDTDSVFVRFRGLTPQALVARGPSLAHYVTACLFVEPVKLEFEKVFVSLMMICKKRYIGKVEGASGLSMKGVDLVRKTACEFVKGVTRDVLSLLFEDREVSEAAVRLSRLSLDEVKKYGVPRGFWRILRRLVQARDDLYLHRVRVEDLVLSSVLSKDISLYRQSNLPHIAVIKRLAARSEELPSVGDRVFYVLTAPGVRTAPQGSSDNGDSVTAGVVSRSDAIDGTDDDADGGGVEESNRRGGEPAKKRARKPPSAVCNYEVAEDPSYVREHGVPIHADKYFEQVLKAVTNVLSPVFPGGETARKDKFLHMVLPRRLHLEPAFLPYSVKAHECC
Format: biochemical
Experimental: The HCMV polymerase assay is performed using a scintillation proximity assay (SPA) as described in several references, such as N. D. Cook, et al., Pharmaceutical Manufacturing International, pages 49-53 (1992); K. Takeuchi, Laboratory Practice, September issue (1992); U.S. Pat. No. 4,568,649 (1986); which are incorporated by reference herein. Reactions are performed in 96-well plates. The assay is conducted in 100 μl volume with 5.4 mM HEPES (pH 7.5), 11.7 mM KCl, 4.5 mM MgCl2, 0.36 mg/ml BSA, and 90 nM ^3H-dTTP. Assays are run with and without CHAPS, (3-[(3-Cholamidopropyl)-dimethylammonio]-1-propane-sulfonate) at a final concentration of 2 mM. HCMV is diluted in enzyme dilution buffer containing 50% glycerol, 250 mM NaCl, 10 mM HEPES (pH 7.5), 100 pg/ml BSA, and 0.01% sodium azide. The HCMV polymerase, which is expressed in recombinant baculovirus-infected SF-9 cells and purified according to literature procedures, is added at 10% (or 10 μl) of the final reaction volume, i.e., 100 μl. Compounds are diluted in 50% DMSO and 10 μl are added to each well. Control wells contain an equivalent concentration of DMSO. Unless noted otherwise, reactions are initiated via the addition of 6 nM biotinylated poly(dA)-oligo(dT) template/primer to reaction mixtures containing the enzyme, substrate, and compounds of interest. Plates are incubated in a 25° C. of 37° C. H2O bath and terminated via the addition of 40 μl/reaction of 0.5 M EDTA (pH 8) per well. Reactions are terminated within the time-frame during which substrate incorporation is linear and varied depending upon the enzyme and conditions used, i.e., 30 min. for HCMV polymerase. Ten μl of streptavidin-SPA beads (20 mg/ml in PBS/10% glycerol) are added following termination of the reaction. Plates are incubated 10 min. at 37° C., then equilibrated to room temperature, and counted on a Packard Topcount. Linear regressions are performed and IC50's are calculated using computer software. Results of the testing of compounds of the present invention in this assay are shown in Tables 1, 2, 5, 9, 10, 11, 13 (except for the last compound which was tested under modified conditions) and 14 below.
Molecule `COc1ccc(NC(=O)c2ccc3cccnc3c2O)cc1` has an IC50 of 30.1 µM.
`O=C(Nc1cccc(Cl)c1)c1ccc2cccnc2c1O` was tested, and the IC50 was 1.7 µM.
`O=C(Nc1cccc(F)c1)c1ccc2cccnc2c1O` gave an IC50 of 16.9 µM.
Work on `O=C(Nc1ccc(F)c(F)c1)c1ccc2cccnc2c1O` yielded an IC50 of 82.9 µM.
With `O=C(Nc1cc(F)cc(F)c1)c1ccc2cccnc2c1O` the IC50 was 26.3 µM.
Molecule `O=C(Nc1ccc([N+](=O)[O-])cc1)c1ccc2cccnc2c1O` has an IC50 of 48.4 µM.
`O=C(Nc1ccc2ccccc2c1)c1ccc2cccnc2c1O` showed an IC50 of 15.5 µM.
With `O=C(Nc1ccc(S(=O)(=O)Nc2ccc3cn[nH]c3c2)cc1)c1ccc2cccnc2c1O` the IC50 was 2.4 µM.
`O=C(Nc1cccc(Br)c1)c1ccc2cccnc2c1O` gave an IC50 of 9.2 µM.
`O=C(Nc1ccc(Cl)c(Cl)c1)c1ccc2cccnc2c1O` gave an IC50 of 32.7 µM.
`O=C(Nc1cccc(I)c1)c1ccc2cccnc2c1O` was tested, and the IC50 was 5.9 µM.
Work on `O=C(Nc1cccc(OCc2ccccc2)c1)c1ccc2cccnc2c1O` yielded an IC50 of 2.9 µM.
Work on `CSc1cccc(NC(=O)c2ccc3cccnc3c2O)c1` yielded an IC50 of 25.5 µM.
In the case of `Cc1cc(C)cc(NC(=O)c2ccc3cccnc3c2O)c1`, the IC50 is reported as 19.2 µM.
With `O=C(Nc1ccc(Br)cc1)c1ccc2cccnc2c1O` the IC50 was 29.7 µM.
With `O=C(Nc1ccc(Oc2ccccc2)cc1)c1ccc2cccnc2c1O` the IC50 was 6.9 µM.
For `O=C(Nc1cc(Cl)c(O)c(Cl)c1)c1ccc2cccnc2c1O`, the IC50 was 30.5 µM.
For `O=C(Nc1ccc(Sc2ccc([N+](=O)[O-])cc2)cc1)c1ccc2cccnc2c1O`, the IC50 was over 100 µM.
Molecule `O=C(Nc1ccc(OCc2ccccc2)cc1)c1ccc2cccnc2c1O` has an IC50 of 4.1 µM.
With `O=C(Nc1ccc(Oc2ccc([N+](=O)[O-])cc2)cc1)c1ccc2cccnc2c1O` the IC50 was 3.9 µM.
`O=C(Nc1cccc2ccccc12)c1ccc2cccnc2c1O` showed an IC50 of 4.9 µM.
For `O=C(Nc1ccccc1-n1cccc1)c1ccc2cccnc2c1O`, the IC50 was 27.9 µM.
Molecule `O=C(Nc1ccc2[nH]ccc2c1)c1ccc2cccnc2c1O` has an IC50 of 13.6 µM.
Molecule `O=C(Nc1cccc2cccnc12)c1ccc2cccnc2c1O` has an IC50 of 10.3 µM.
`COc1ccc(NC(=O)c2ccc3cccnc3c2O)c([N+](=O)[O-])c1` was tested, and the IC50 was 22.4 µM.
`O=C(Nc1cc([N+](=O)[O-])cc([N+](=O)[O-])c1)c1ccc2cccnc2c1O` showed an IC50 of 7.1 µM.
Molecule `N#Cc1ccccc1NC(=O)c1ccc2cccnc2c1O` has an IC50 of over 50 µM.
In the case of `O=C(Nc1ccc2cccc(O)c2n1)c1ccc2cccnc2c1O`, the IC50 is reported as 14.5 µM.

Same assay, conditions: Table 11; read-out: CMV pol Assay IC50
With `O=C(Nc1nnc(NCCc2ccccc2)s1)c1ccc2cccnc2c1O` the IC50 was 2.4 µM.
In the case of `CCCCNc1nnc(NC(=O)c2ccc3cccnc3c2O)s1`, the IC50 is reported as 2.5 µM.
`CC(C)(C)OC(=O)NCCNc1nnc(NC(=O)c2ccc3cccnc3c2O)s1` gave an IC50 of 14.3 µM.
Work on `N#CC(Nc1nnc(NC(=O)c2ccc3cccnc3c2O)s1)c1ccc2c(c1)OCO2` (stereo not shown) yielded an IC50 of 3.1 µM.
In the case of `COC(=O)[C@H](Cc1ccccc1)Nc1nnc(NC(=O)c2ccc3cccnc3c2O)s1`, the IC50 is reported as 15.4 µM.
Molecule `COC(=O)[C@@H](Cc1ccccc1)Nc1nnc(NC(=O)c2ccc3cccnc3c2O)s1` has an IC50 of 9.4 µM.
`CC(C)(C)OC(=O)C(Nc1nnc(NC(=O)c2ccc3cccnc3c2O)s1)c1ccc2c(c1)OCO2` (stereo not shown) was tested, and the IC50 was 4.3 µM.
Molecule `CC(C)(C)OC(=O)C(Nc1nnc(NC(=O)c2ccc3cccnc3c2O)s1)c1cccc2c1OCO2` (stereo not shown) has an IC50 of 4.7 µM.
With `O=C(Nc1nnc(NCc2ccc3c(c2)OCO3)s1)c1ccc2cccnc2c1O` the IC50 was 7.1 µM.
`CC(C)(C)OC(=O)[C@H](Cc1ccc(O)cc1)Nc1nnc(NC(=O)c2ccc3cccnc3c2O)s1` showed an IC50 of under 3.1 µM.
Molecule `CC(C)(C)OC(=O)[C@H](CCCCNC(=O)OCc1ccccc1)Nc1nnc(NC(=O)c2ccc3cccnc3c2O)s1` has an IC50 of under 3.1 µM.
`CC(C)C[C@H](Nc1nnc(NC(=O)c2ccc3cccnc3c2O)s1)C(=O)OC(C)(C)C` showed an IC50 of 11.4 µM.
For `CC(C)(C)OC(=O)[C@@H]1CCCN1c1nnc(NC(=O)c2ccc3cccnc3c2O)s1`, the IC50 was 13.9 µM.
Molecule `CSCC[C@H](Nc1nnc(NC(=O)c2ccc3cccnc3c2O)s1)C(=O)OC(C)(C)C` has an IC50 of 26.6 µM.
`CC(C)(C)OC(=O)[C@H](Cc1c[nH]c2ccccc12)Nc1nnc(NC(=O)c2ccc3cccnc3c2O)s1` showed an IC50 of under 3.1 µM.
Work on `CC(C)(C)OC(=O)[C@H](Cc1ccc(OC(C)(C)C)cc1)Nc1nnc(NC(=O)c2ccc3cccnc3c2O)s1` yielded an IC50 of 4.5 µM.
`CC(C)(C)OC(=O)C[C@H](Nc1nnc(NC(=O)c2ccc3cccnc3c2O)s1)C(=O)OC(C)(C)C` was tested, and the IC50 was 24.2 µM.
`O=C(Nc1nnc(NC(C(=O)O)c2ccc3c(c2)OCO3)s1)c1ccc2cccnc2c1O` (stereo not shown) gave an IC50 of 22.6 µM.
`O=C(Nc1nnc(NC(C(=O)O)c2cccc3c2OCO3)s1)c1ccc2cccnc2c1O` (stereo not shown) showed an IC50 of 18.9 µM.
With `O=C(Nc1nnc(N[C@@H](Cc2c[nH]c3ccccc23)C(=O)O)s1)c1ccc2cccnc2c1O` the IC50 was 8.5 µM.

Same assay, conditions: Table 13; 100 μM
Work on `Cc1cc(C(F)(F)F)nc2c(O)c(C(=O)NCc3ccc(Cl)cc3)ccc12` yielded an inhibition at 100 µM of 35%.

Same assay, conditions: Table 13; read-out: IC50
With `Cc1ccc2ccc(C(=O)Nc3ccc(Cl)cc3)c(O)c2n1` the IC50 was 7.6 µM.
`O=C(NCc1ccc(Cl)cc1)c1cc([N+](=O)[O-])c2cccnc2c1O` was tested, and the IC50 was 2.6 µM.
In the case of `O=C(NC1=NC(=O)C(c2cccc([N+](=O)[O-])c2)S1)c1ccc2cccnc2c1O` (stereo not shown), the IC50 is reported as 5.2 µM.
With `O=C(NC1=NC(=O)C(Cc2ccc(Cl)cc2)S1)c1ccc2cccnc2c1O` (stereo not shown) the IC50 was 1.7 µM.
Molecule `O=C(NCCSc1ccccc1)c1ccc2ccc(C(F)(F)F)nc2c1O` has an IC50 of 41.6 µM.
With `Cc1cc(O)c2ccc(C(=O)NCc3ccc(Cl)cc3)c(O)c2n1` the IC50 was 102 µM.

Same assay, conditions: Table 14; 25 uM
Molecule `O=C(N[C@H]1CC[C@H](O)CC1)c1ccc2cccnc2c1O` has an inhibition at 25 µM of 21%.
`O=C(N[C@H](CO)Cc1ccccc1)c1ccc2cccnc2c1O` gave an inhibition at 25 µM of 93%.
`O=C(NC(CO)c1ccccc1)c1ccc2cccnc2c1O` (stereo not shown) gave an inhibition at 25 µM of 39%.
`O=C(NCCc1ccccc1F)c1ccc2cccnc2c1O` gave an inhibition at 25 µM of 39%.
`O=C(NCCc1ccc(F)cc1)c1ccc2cccnc2c1O` gave an inhibition at 25 µM of 42%.

Same assay, conditions: Table 14; read-out: IC50
With `O=C(c1ccc2cccnc2c1O)N1CCN(c2ccc(Cl)c(Cl)c2)CC1` the IC50 was 14 µM.
`O=C(NCc1ccc2c(c1)OCO2)c1ccc2cccnc2c1O` showed an IC50 of 26 µM.
`CCCCCCNC(=O)c1ccc2cccnc2c1O` gave an IC50 of 27 µM.
In the case of `O=C(NCCNc1ccc([N+](=O)[O-])cn1)c1ccc2cccnc2c1O`, the IC50 is reported as 42 µM.
`O=C(NCCOc1ccccc1)c1ccc2cccnc2c1O` showed an IC50 of 29 µM.
With `C[C@H](NC(=O)c1ccc2cccnc2c1O)[C@H](O)c1ccccc1` the IC50 was 41 µM.
`CCOC(=O)C(Cc1ccccc1)NC(=O)c1ccc2cccnc2c1O` (stereo not shown) showed an IC50 of 41 µM.
`N#CC(NC(=O)c1ccc2cccnc2c1O)c1ccccc1` (stereo not shown) gave an IC50 of 54 µM.
`CC(C)C[C@H](NC(=O)c1ccc2cccnc2c1O)C(=O)OC(C)(C)C` gave an IC50 of 51 µM.
`O=C(NC(CO)C(O)c1ccccc1)c1ccc2cccnc2c1O` (stereo not shown) gave an IC50 of 14 µM.
Work on `CC[C@H](C)C(CO)NC(=O)c1ccc2cccnc2c1O` (stereo partly shown) yielded an IC50 of 26 µM.
Molecule `O=C(NCc1cccs1)c1ccc2cccnc2c1O` has an IC50 of 34 µM.
In the case of `O=C(N[C@@H](CO)c1ccccc1)c1ccc2cccnc2c1O`, the IC50 is reported as 19 µM.
`O=C(NCCc1ccccc1Cl)c1ccc2cccnc2c1O` was tested, and the IC50 was 26 µM.
Molecule `O=C(NCc1ccc(F)c(F)c1)c1ccc2cccnc2c1O` has an IC50 of 42 µM.
`O=C(NCc1c(F)cccc1Cl)c1ccc2cccnc2c1O` was tested, and the IC50 was 30 µM.
With `O=C(NCc1ccc(F)cc1Cl)c1ccc2cccnc2c1O` the IC50 was 28 µM.
For `O=C(NCc1cc(Cl)cc(Cl)c1)c1ccc2cccnc2c1O`, the IC50 was 27 µM.
In the case of `O=C(N[C@H]1CC[C@H](OC(=O)c2ccc3cccnc3c2O)CC1)c1ccc2cccnc2c1O`, the IC50 is reported as 4 µM.
